Data as given in ChEMBL document CHEMBL4052693, “1,2,4-Triazole and 1,3,4-oxadiazole analogues: Synthesis, MO studies, in silico molecular docking studies, antimalarial as DHFR inhibitor and antimicrobial activities” (Bioorg Med Chem, 2017).
In brackets after ≈: the same amount, converted by molar mass. Activity calls are given as the source filed them. The calls are words filed in the database; no cut-off is given here.

What was measured:
[1] = test system: Streptococcus pyogenes; test: Antimicrobial activity against Streptococcus pyogenes MTCC 442 incubated for overnight by broth micro dilution method; type: functional
[2] = test system: Candida albicans; test: Antifungal activity against Candida albicans MTCC 227 incubated for overnight by broth micro dilution method; type: functional
[3] = Cytotoxicity against Schizosaccharomyces pombe Var. Paul Linder 3360 assessed as cell viability at 10 ug/ml after 16 to 18 hrs by trypan blue staining-based compound microscopic analysis (reference value: 93.67 +/- 1.53%); conditions: Schizosaccharomyces pombe Var. Paul Linder 3360 cells, read-out: Activity
[4] = Cytotoxicity against Schizosaccharomyces pombe Var. Paul Linder 3360 assessed as cell viability at 2 ug/ml after 16 to 18 hrs by trypan blue staining-based compound microscopic analysis (reference value: 93.67 +/- 1.53%); conditions: Schizosaccharomyces pombe Var. Paul Linder 3360 cells, read-out: Activity
[5] = target: T1, Dihydrofolate reductase (Bos taurus, UniProt P00376); test: Inhibition of bovine liver DHFR pre-incubated 2 mins before dihydrofolic acid substrate addition and measured over 10 mins in presence of NADPH
T1 sequence (P00376 whole entry): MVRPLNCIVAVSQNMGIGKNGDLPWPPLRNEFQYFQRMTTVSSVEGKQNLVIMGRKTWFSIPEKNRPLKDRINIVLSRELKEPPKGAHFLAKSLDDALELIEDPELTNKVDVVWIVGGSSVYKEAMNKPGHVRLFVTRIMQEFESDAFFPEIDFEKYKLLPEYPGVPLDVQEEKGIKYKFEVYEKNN

[6] = test system: Pseudomonas aeruginosa; test: Antimicrobial activity against Pseudomonas aeruginosa MTCC 1688 incubated for overnight by broth micro dilution method; type: functional
[7] = test system: Aspergillus clavatus; conditions: MTCC 1323
[8] = test system: Plasmodium falciparum; test: Antimalarial activity against Plasmodium falciparum ring stage forms after 48 hrs; type: functional
[9] = Cytotoxicity against Schizosaccharomyces pombe Var. Paul Linder 3360 assessed as cell viability at 8 ug/ml after 16 to 18 hrs by trypan blue staining-based compound microscopic analysis (reference value: 93.67 +/- 1.53%); conditions: Schizosaccharomyces pombe Var. Paul Linder 3360 cells, read-out: Activity
[10] = Cytotoxicity against Schizosaccharomyces pombe Var. Paul Linder 3360 assessed as cell viability at 4 ug/ml after 16 to 18 hrs by trypan blue staining-based compound microscopic analysis (reference value: 93.67 +/- 1.53%); conditions: Schizosaccharomyces pombe Var. Paul Linder 3360 cells, read-out: Activity
[11] = test system: Schizosaccharomyces pombe; test: Genotoxicity in Schizosaccharomyces pombe Var. Paul Linder 3360 assessed as DNA damage at 2 to 10 ug/ml after 17 to 18 hrs by agarose gel electrophoresis analysis
[12] = test system: Staphylococcus aureus; test: Antimicrobial activity against Staphylococcus aureus MTCC 96 incubated for overnight by broth micro dilution method; type: functional
[13] = Cytotoxicity against Schizosaccharomyces pombe Var. Paul Linder 3360 assessed as cell viability at 6 ug/ml after 16 to 18 hrs by trypan blue staining-based compound microscopic analysis (reference value: 93.67 +/- 1.53%); conditions: Schizosaccharomyces pombe Var. Paul Linder 3360 cells, read-out: Activity
[14] = test system: Escherichia coli; test: Antimicrobial activity against Escherichia coli MTCC 443 incubated for overnight by broth micro dilution method; type: functional
[15] = test system: Aspergillus clavatus; test: Antifungal activity against Aspergillus clavatus MTCC 1323 incubated for overnight by broth micro dilution method; type: functional

| Molecule | MIC99 [1] | MIC99 [2] | viability at 10 ug/ml [3] | viability at 2 ug/ml [4] | IC50 [5] | MIC99 [6] | MIC99 [7] | IC50 [8] | viability at 8 ug/ml [9] | viability at 4 ug/ml [10] | Activity [11] | MIC99 [12] | viability at 6 ug/ml [13] | MIC99 [14] | MIC99 [15] |
| --- | --- | --- | --- | --- | --- | --- | --- | --- | --- | --- | --- | --- | --- | --- | --- |
| Sc1nnc(-c2ccc(/N=C/c3ccc(Cl)cc3)cc2)n1/N=C/c1ccc(Cl)cc1 | 222 µM (≈ 100 µg/mL) | inactive | 47% | 83.3% | 34.9 nM | 222 µM (≈ 100 µg/mL) | inactive | 230 nM | 55.7% | 72.3% | Toxic | 554 µM (≈ 251 µg/mL) | 62.3% | 554 µM (≈ 251 µg/mL) | – |
| CCc1nc(N)nc(N)c1-c1ccc(Cl)cc1 [PYRIMETHAMINE] | – | – | – | – | – | – | – | 1000 nM | – | – | – | – | – | – | – |
| Sc1nnc(-c2ccc(/N=C/c3cccs3)cc2)o1 | 348 µM (≈ 100 µg/mL) | inactive | 52.7% | 74.3% | – | 871 µM (≈ 250 µg/mL) | inactive | 802 nM | 61% | 70.7% | Toxic | 697 µM (≈ 200 µg/mL) | 66.3% | 436 µM (≈ 125 µg/mL) | – |
| COC1=CC(=O)C[C@@H](C)[C@]12Oc1c(Cl)c(OC)cc(OC)c1C2=O [GRISEOFULVIN] | – | 1420 µM (≈ 501 µg/mL) | – | – | – | – | – | – | – | – | – | – | – | – | 284 µM (≈ 100 µg/mL) |
| CCN(CC)CCCC(C)Nc1ccnc2cc(Cl)ccc12 (configuration not stated) [CHLOROQUINE] | – | – | – | – | 30.1 nM | – | – | – | – | – | – | – | – | – | – |
| Oc1ccc(/C=N/c2ccc(-c3nnc(S)n3/N=C/c3ccc(O)cc3)cc2)cc1 | 482 µM (≈ 200 µg/mL) | inactive | 72.3% | 84.7% | 49.5 nM | 602 µM (≈ 250 µg/mL) | inactive | 282 nM | 77% | 79.7% | Toxic | 602 µM (≈ 250 µg/mL) | 78.7% | 241 µM (≈ 100 µg/mL) | – |
| NYSTATIN | – | 108 µM | – | – | – | – | 108 µM | – | – | – | – | – | – | – | – |
| O=[N+]([O-])c1cccc(/C=N/c2ccc(-c3nnc(S)o3)cc2)c1 | 307 µM (≈ 100 µg/mL) | 1530 µM (≈ 501 µg/mL) | 46.3% | 78.3% | – | 613 µM (≈ 200 µg/mL) | – | 806 nM | 56.7% | 74.3% | Toxic | 383 µM (≈ 125 µg/mL) | 65.7% | 613 µM (≈ 200 µg/mL) | 1530 µM (≈ 501 µg/mL) |
| CC1(C)S[C@@H]2[C@H](NC(=O)[C@H](N)c3ccccc3)C(=O)N2[C@H]1C(=O)O [AMPICILLIN] | 286 µM (≈ 99.9 µg/mL) | – | – | – | – | 286 µM (≈ 99.9 µg/mL) | – | – | – | – | – | 716 µM (≈ 250 µg/mL) | – | 286 µM (≈ 99.9 µg/mL) | – |
| CCn1cc(C(=O)O)c(=O)c2cc(F)c(N3CCNCC3)cc21 [NORFLOXACIN] | 31 µM (≈ 9.9 µg/mL) | – | – | – | – | 31 µM (≈ 9.9 µg/mL) | – | – | – | – | – | 31 µM (≈ 9.9 µg/mL) | – | 31 µM (≈ 9.9 µg/mL) | – |
| O=[N+]([O-])c1cccc(/C=N/c2ccc(-c3nnc(S)n3/N=C/c3cccc([N+](=O)[O-])c3)cc2)c1 | 132 µM (≈ 62.5 µg/mL) | 1060 µM (≈ 500 µg/mL) | 59.7% | 87% | 25.9 nM | 528 µM (≈ 250 µg/mL) | – | 245 nM | 65.3% | 80% | Toxic | 264 µM (≈ 125 µg/mL) | 73.7% | 423 µM (≈ 200 µg/mL) | 2110 µM (≈ 1000 µg/mL) |
| O=C(N[C@H](CO)[C@H](O)c1ccc([N+](=O)[O-])cc1)C(Cl)Cl [CHLORAMPHENICOL] | 155 µM (≈ 50.1 µg/mL) | – | – | – | – | 155 µM (≈ 50.1 µg/mL) | – | – | – | – | – | 155 µM (≈ 50.1 µg/mL) | – | 155 µM (≈ 50.1 µg/mL) | – |
| O=C(O)c1cn(C2CC2)c2cc(N3CCNCC3)c(F)cc2c1=O [CIPROFLOXACIN] | 151 µM (≈ 50 µg/mL) | – | – | – | – | 75 µM (≈ 24.9 µg/mL) | – | – | – | – | – | 151 µM (≈ 50 µg/mL) | – | 75 µM (≈ 24.9 µg/mL) | – |
| COc1ccc(/C=N/c2ccc(-c3nnc(S)o3)cc2)cc1 | 804 µM (≈ 250 µg/mL) | 3220 µM (≈ 1000 µg/mL) | 49% | 80.3% | – | 402 µM (≈ 125 µg/mL) | – | 790 nM | 63.7% | 72.3% | Toxic | 804 µM (≈ 250 µg/mL) | 68% | 643 µM (≈ 200 µg/mL) | 1610 µM (≈ 500 µg/mL) |
| Nc1ccc(-c2nnc(S)n2N)cc1 | 1210 µM (≈ 250 µg/mL) | 4830 µM (≈ 1000 µg/mL) | 67% | 91.3% | – | 966 µM (≈ 200 µg/mL) | – | 960 nM | 75.7% | 85.7% | Toxic | 1210 µM (≈ 250 µg/mL) | 82% | 1210 µM (≈ 250 µg/mL) | 2420 µM (≈ 501 µg/mL) |
| Sc1nnc(-c2ccc(/N=C/c3ccc(Cl)cc3)cc2)o1 | 397 µM (≈ 125 µg/mL) | inactive | 47% | 81.3% | 45 nM | 397 µM (≈ 125 µg/mL) | inactive | 301 nM | 54.7% | 73.3% | Toxic | 794 µM (≈ 251 µg/mL) | 64.7% | 635 µM (≈ 201 µg/mL) | – |
| Sc1nnc(-c2ccc(/N=C/c3cccs3)cc2)n1/N=C/c1cccs1 | 506 µM (≈ 200 µg/mL) | 2530 µM (≈ 1000 µg/mL) | 63.3% | 87.7% | – | 633 µM (≈ 250 µg/mL) | inactive | 815 nM | 70.7% | 82% | Toxic | 633 µM (≈ 250 µg/mL) | 75.3% | 316 µM (≈ 125 µg/mL) | – |
| Nc1ccc(-c2nnc(S)o2)cc1 | 518 µM (≈ 100 µg/mL) | 2590 µM (≈ 500 µg/mL) | 68.3% | 87.3% | – | 1300 µM (≈ 250 µg/mL) | – | 810 nM | 71% | 83% | Toxic | 324 µM (≈ 62.6 µg/mL) | 76% | 518 µM (≈ 100 µg/mL) | 1300 µM (≈ 250 µg/mL) |
| COc1ccc(/C=N/c2ccc(-c3nnc(S)n3/N=C/c3ccc(OC)cc3)cc2)cc1 | 226 µM (≈ 100 µg/mL) | 1130 µM (≈ 500 µg/mL) | 38.7% | 79% | – | 564 µM (≈ 250 µg/mL) | – | 835 nM | 52.7% | 64.3% | Toxic | 564 µM (≈ 250 µg/mL) | 59% | 282 µM (≈ 125 µg/mL) | 1130 µM (≈ 500 µg/mL) |
| Oc1ccc(/C=N/c2ccc(-c3nnc(S)o3)cc2)cc1 | 673 µM (≈ 200 µg/mL) | inactive | 45.3% | 82.3% | – | 842 µM (≈ 250 µg/mL) | inactive | 822 nM | 67% | 78.3% | Toxic | 673 µM (≈ 200 µg/mL) | 72% | 421 µM (≈ 125 µg/mL) | – |
